Measured values reported in PubChem BioAssay (NCI).
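96-well plates; 48 h exposure; 5 concentrations. Endpoints by linear interpolation between flanking doses. Not reached: highest tested concentration assigned. GI50 is the concentration that inhibits growth by half. TGI: concentration producing complete growth inhibition.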

Experiments:
Assay in all cases: NCI-60 cell line screen, 48 h
A549 NSCLC = system: A549 NSCLC
HCC-2998 colon = system: HCC-2998 colon
KM12 colon = system: KM12 colon
MALME-3M melanoma = system: MALME-3M melanoma
NCI-H226 lung = system: NCI-H226 lung
OVCAR-5 ovarian = system: OVCAR-5 ovarian
SF-539 CNS = system: SF-539 CNS
SK-OV-3 ovarian = system: SK-OV-3 ovarian
SN12C renal = system: SN12C renal
UACC-62 melanoma = system: UACC-62 melanoma

| Compound | TGI (A549 NSCLC) | TGI (HCC-2998 colon) | TGI (KM12 colon) | TGI (MALME-3M melanoma) | TGI (NCI-H226 lung) | TGI (OVCAR-5 ovarian) | TGI (SF-539 CNS) | TGI (SK-OV-3 ovarian) | TGI (SN12C renal) | TGI (UACC-62 melanoma) | GI50 (A549 NSCLC) | GI50 (HCC-2998 colon) | GI50 (KM12 colon) | GI50 (MALME-3M melanoma) | GI50 (NCI-H226 lung) | GI50 (OVCAR-5 ovarian) | GI50 (SF-539 CNS) | GI50 (SK-OV-3 ovarian) | GI50 (SN12C renal) | GI50 (UACC-62 melanoma) |
| --- | --- | --- | --- | --- | --- | --- | --- | --- | --- | --- | --- | --- | --- | --- | --- | --- | --- | --- | --- | --- |
| Cc1nc(-c2cccnc2)sc1C(=O)/C=C/c1cccc([N+](=O)[O-])c1 | > 100 µM | > 100 µM | > 100 µM | > 100 µM | > 100 µM | > 100 µM | > 100 µM | > 100 µM | > 100 µM | > 100 µM |  |  |  |  |  |  |  |  |  |  |
| Cc1cc(C)n(C2=NS(=O)(=O)c3ccccc3N2C)n1 | > 100 µM | > 100 µM | > 100 µM |  | > 100 µM | > 100 µM | > 100 µM | > 100 µM | > 100 µM | > 100 µM |  |  |  |  |  |  |  |  |  |  |
| CCOC(=O)C1(Cc2ccc3ccccc3c2)CCCCC(=O)N1 (stereo not given) | > 100 µM | 66.6 µM |  | 86.5 µM |  |  |  | > 100 µM | > 100 µM | > 100 µM |  |  |  |  |  |  |  |  |  |  |
| O=C1C2=C(CCC2)Nc2cccc3ncn1c23 | > 100 µM | > 100 µM | > 100 µM | > 100 µM |  | > 100 µM | > 100 µM | > 100 µM | > 100 µM | > 100 µM |  |  |  |  |  |  |  |  |  |  |
| CCNCCNc1cc(-c2ccc(C#N)cc2)c(C#N)c2nc3ccccc3n12 | 6.39 µM | 20.8 µM | 12.2 µM | 3.99 µM | 11.9 µM | 18.4 µM | 3.49 µM | 14.8 µM | 11.8 µM | 4.18 µM | 3.06 µM | 6.04 µM | 3.36 µM | 1.8 µM | 2.59 µM | 4.66 µM | 1.77 µM | 3.8 µM | 3.13 µM | 2.02 µM |
| Cc1cc2c(cc1Cl)S/C(=C/C(=O)O)C(Nc1cccc3nsnc13)=NS2(=O)=O | > 81.3 µM |  | > 65.3 µM | > 65.8 µM | > 68 µM | > 67.4 µM |  | > 62.5 µM | > 53.4 µM | > 66.2 µM | > 51 µM |  | 50.6 µM | > 53.4 µM | 32.1 µM | 34.6 µM |  | > 49.5 µM | 27 µM | 43 µM |
| Cc1cccc(/C(Br)=C2/OC(=O)c3ccccc32)c1 | > 100 µM | > 100 µM | > 100 µM | > 100 µM |  | > 100 µM | > 100 µM | > 100 µM | > 100 µM | > 100 µM |  |  |  |  |  |  |  |  |  |  |
| Cc1c2ccncc2c(C)c2c1[nH]c1ccc(O)c(OCC(F)(F)F)c12 | 16.5 µM | 19.3 µM |  | 22.3 µM | 20.1 µM | 25.8 µM | 16.3 µM | 19.9 µM | 20.8 µM | 21.6 µM |  |  |  |  |  |  |  |  |  |  |
| CCOC(=O)N1CCN(CCCCCOc2ccccc2C2CCCCC2)CC1 | 17.3 µM |  | 23.1 µM | 19.2 µM | 18.4 µM |  | 19.1 µM | 19.1 µM | 22.2 µM | 19.7 µM | 5.01 µM |  | 7.67 µM | 4.91 µM | 3.96 µM |  | 6.39 µM | 6.08 µM | 6.34 µM | 4.86 µM |
| O=C(NCCN1CCNCC1)c1ccc(Nc2nc3ccccc3c3occc23)cc1 | 36.8 µM | 3.9 µM | 40.6 µM |  |  | 29.5 µM | 6.36 µM | 47.5 µM | 34.9 µM | 32 µM | 17.5 µM | 1.79 µM | 19 µM |  |  | 15 µM | 2.65 µM | 19.3 µM | 18.2 µM | 17.6 µM |
| N#C/C(=C1\SC(N=Nc2ccc(Cl)cc2)C(=O)N1c1ccccc1)c1nc2ccccc2[nH]1 (stereo not given) | 87.3 µM |  |  | 99.1 µM | 77.2 µM | > 100 µM | > 100 µM | 35.6 µM | > 100 µM | > 100 µM |  |  |  |  |  |  |  |  |  |  |
| COC(=O)C1C(=O)N(CCc2c[nH]c3ccccc23)C[C@@H]2CCC(=O)C[C@H]12 (stereo not given in full) | > 100 µM | > 100 µM | > 100 µM | > 100 µM |  |  | > 100 µM | > 100 µM | > 100 µM | > 100 µM |  |  |  |  |  |  |  |  |  |  |
| c1ccc(-c2nc(N3CCCNCC3)c3nc(-c4ccccc4)oc3n2)cc1 | 3.71 µM | 3.02 µM | 3.38 µM | 3.33 µM |  | 3.18 µM | 3.03 µM | 3.19 µM | 3.38 µM | 3.34 µM | 1.8 µM | 1.53 µM | 1.83 µM | 1.77 µM |  | 1.7 µM | 1.64 µM | 1.74 µM | 1.74 µM | 1.81 µM |
| [2H]c1nc(=Nc2cc(NC(=O)C=C)c(N(C)CCN(C)C)cc2OC)[nH]c(-c2cn(C([2H])([2H])[2H])c3ccccc23)c1[2H] | 7.64 µM | 2.8 µM | 11.5 µM | 3.66 µM | 26 µM | 2.93 µM | 2.96 µM |  | 2.71 µM | 3.28 µM | 1.14 µM | 1.44 µM | 3.15 µM | 1.94 µM | 2.45 µM | 1.04 µM | 1.47 µM |  | 1.18 µM | 1.72 µM |
| N.N.N.N.N.O=S(=O)([O-])S(=O)(=O)[O-].[Co+3] | > 100 µM |  | > 100 µM | > 100 µM |  | > 100 µM | > 100 µM | > 100 µM | > 100 µM | > 100 µM | > 100 µM |  | > 100 µM | > 100 µM |  | > 100 µM | > 100 µM | > 100 µM | > 100 µM | > 100 µM |
| Nc1ccccc1C(=O)C(Br)C(Br)c1ccc2c(c1)OCO2 (stereo not given) | 57.3 µM | 42.5 µM | 33.8 µM | 39 µM | 52.2 µM |  | 33.8 µM | 84.4 µM | 72.5 µM | 35.2 µM |  |  |  |  |  |  |  |  |  |  |
| CC(C)[O-].CC(C)[O-].O=c1cccccc1[O-].O=c1cccccc1[O-].[Ti+4] | > 100 µM | > 100 µM | 69.8 µM | 70.2 µM | > 100 µM | > 100 µM | > 100 µM | > 100 µM |  | > 100 µM |  |  |  |  |  |  | 29.3 µM |  |  |  |
| CCOC(=O)c1c(SCCN2CCOCC2)n(-c2ccccc2)c(=S)n(-c2ccccc2)c1=O | > 100 µM | > 100 µM | > 100 µM | > 100 µM | > 100 µM | > 100 µM |  |  | > 100 µM | > 100 µM |  |  |  |  |  |  |  |  |  |  |
